Measured values as given in patent US20200323905A1, “METHODS AND COMPOSITIONS FOR MODULATING THE IMMUNE SYSTEM” (Trustees of Boston University, priority 2019, published 2020).
Entries after “also recorded” stand apart in the source; their conditions may differ.

Columns and labels:
Type in all cases: cell-based, mouse
[1] = tested on: WT CD4+ T cells; assay: T-cell activation marker expression by flow cytometry after IL-2 and CD3/CD28 stimulation
Experimental: (§1) Spleens from WT or Yap-cKO mice were pushed through a 70 μm mesh (Falcon) using an insulin syringe plunger and washed with PBS. Cells were treated with ACK red blood cell lysis buffer, and splenocyte single-cell suspensions were prepared for magnetic separation or stained for sorting by flow cytometry. CD4^+ or CD8^+ T-cell enrichment was performed using magnetic beads (Miltenyi Biotec or STEMCELL Technologies). Naïve CD4^+ T cells were isolated using a naïve CD4^+ T-cell isolation kit (Miltenyi Biotec).
(§2) Isolated splenocytes or tumor digests were washed with PBS and stained with the LIVE/DEAD fixable near-IR dead cell stain kit (Invitrogen). Cells were then washed with stain buffer (BD), resuspended in stain buffer containing Fc block (BD), and incubated for 5 minutes at 4° C. Surface antibodies were added in predetermined concentrations, and cells were incubated for 30 minutes at 4° C. or 15 minutes at room temperature, before being washed with BD stain buffer and resuspended in PBS for flow cytometric analysis. For intracellular cytokine staining, cells were fixed and permeabilized using the BD Cytofix/Cytoperm Fixation/Permeabilization kit (BD) after dead cell dye and surface staining. For transcription factor staining, the eBioscience Foxp3/transcription factor staining buffer set was used. Flow cytometry analyses were performed on BD LSRII at Boston University School of Medicine Flow Cytometry Facility or at the University of Maryland School of Medicine Center for Innovative Biomedical Resources, Flow Cytometry Shared Service and analyzed by Flowlo (TreeStar).
(§3) Cells were cultured and stimulated in 96-well plates at 1×10^5 cells per well. Plates were coated with anti-CD3 antibody (Biolegend) at concentrations of 0, 0.125, 0.25, 0.5, and 1 μg/ml at 4° C. overnight and were washed twice with PBS before incubation. Cells were stimulated in the anti-CD3-coated plates with soluble anti-CD28 at 2 μg/ml (Biolegend). On days 1 and 3, cells were stained with dead cell dye as well as antibodies recognizing the lineage and activation markers CD3 BUV737 (BD), CD4 BUV395 (BD), CD8 PerCP-Cy5.5 (Biolegend), CD69 PE (Biolegend), CD44 BV650 (Biolegend), and CD25 APC (Biolegend). For proliferation assays, CD4^+ or CD8^+ T cells were isolated and stained using the CellTrace Violet or CFSE Cell Proliferation Kit (Life Technologies). Briefly, purified cells were washed with PBS and incubated with CellTrace dye for 20 minutes at 37° C. protected from light. After 20 minutes, complete RMPI medium was added to the cell suspension, and the cells were incubated 5 minutes further before being washed and resuspended in complete RPMI medium. […] On days 1 and 3, cells were stained with dead cell dye, and proliferation was measured at the same time.

[2] = tested on: WT CD8+ T cells; assay: as above
Experimental: as §1, §2, §3

[3] = tested on: WT CD4+ and CD8+ T cells; assay: T-cell proliferation assay (CellTrace Violet or CFSE); conditions: DMSO- versus verteporfin-treated, 3 days post stimulation with IL-2, anti-CD3 and anti-CD28 (FIG. 6K)
Experimental: Cells were cultured and stimulated in 96-well plates at 1×10^5 cells per well. Plates were coated with anti-CD3 antibody (Biolegend) at concentrations of 0, 0.125, 0.25, 0.5, and 1 μg/ml at 4° C. overnight and were washed twice with PBS before incubation. Cells were stimulated in the anti-CD3-coated plates with soluble anti-CD28 at 2 μg/ml (Biolegend). On days 1 and 3, cells were stained with dead cell dye as well as antibodies recognizing the lineage and activation markers CD3 BUV737 (BD), CD4 BUV395 (BD), CD8 PerCP-Cy5.5 (Biolegend), CD69 PE (Biolegend), CD44 BV650 (Biolegend), and CD25 APC (Biolegend). For proliferation assays, CD4^+ or CD8^+ T cells were isolated and stained using the CellTrace Violet or CFSE Cell Proliferation Kit (Life Technologies). Briefly, purified cells were washed with PBS and incubated with CellTrace dye for 20 minutes at 37° C. protected from light. After 20 minutes, complete RMPI medium was added to the cell suspension, and the cells were incubated 5 minutes further before being washed and resuspended in complete RPMI medium. Cells were cultured in 96-well plates at 1×10^5 cells per well and were stimulated using anti-CD3/CD28 dynabeads (Gibco) at a 1:1 ratio with T cells. On days 1 and 3, cells were stained with dead cell dye, and proliferation was measured at the same time.

Substance: Verteporfin
- CD69 expression on WT CD4+ T cells ([1]; 72 hours (3 days) post IL-2 and CD3/CD28 stimulation, increasing concentration of verteporfin (FIG. 6I, FIG. 11E)): increased levels of early activation markers
- CD71 expression on WT CD4+ T cells ([1]; 72 hours post IL-2 and CD3/CD28 stimulation, increasing concentration of verteporfin (FIG. 1I)): increased levels of early activation markers CD71
- CD69 expression on WT CD8+ T cells ([2]; 72 hours (3 days) post IL-2 and CD3/CD28 stimulation, increasing concentration of verteporfin (FIG. 6J, FIG. 11F)): increased levels of early activation markers
- CD71 expression on WT CD8+ T cells ([2]; 72 hours post IL-2 and CD3/CD28 stimulation, increasing concentration of verteporfin (FIG. 1J)): increased levels of early activation markers CD71
- Proliferation of T cells isolated from WT mice [3]: did not significantly affect proliferation; also recorded: neither Yap deletion nor verteporfin treatment significantly impacted T-cell proliferation
